Active and inactive are the calls of the source. The calls are words filed in the database; no cut-off is given here.
Tests used:
[1] = Photothermal effect of compound in water assessed as increase in temperature of solution at 1 uM incubated for 5 mins in presence of presence of 660 nm 0.2 to 1.5 W/cm2 light; format: functional
[2] = tested on: MCF7; experiment: Antiproliferative activity against human MCF7 cells assessed as inhibition of cell proliferation incubated for 48 hrs with 660 nm 0.2 to 1.5 W/cm2 light irradiation for 1 min at 6th hr of incubation time by MTT assay; format: functional, cell-based
[3] = Cytotoxicity against human MCF-10A cells assessed as inhibition of cell proliferation incubated for 48 hrs in absence of light irradiation by MTT assay; format: toxicity, cell-based
[4] = tested on: MCF7; experiment: Induction of ROS generation in human MCF7 cells assessed as cell percentage with elevated ROS at 1 uM incubated for 6 hrs by DCFH-DA probe based flow cytometric analysis (reference value: 0.2 %); format: functional
[5] = tested on: MCF7; experiment: Induction of ROS generation in human MCF7 cells assessed as cell percentage with elevated ROS at 1 uM incubated for 6 hrs followed by irradiation with 660 nm 0.4 W/cm2 light for 4 min by DCFH-DA probe based flow cytometric analysis (reference value: 0.2 %); format: functional; conditions: time 364 min, 6.067 h
[6] = tested on: MCF7; experiment: Induction of ROS generation in human MCF7 cells assessed as cell percentage with elevated ROS incubated for 6 hrs followed by irradiation with 660 nm 0.4 W/cm2 light for 5 min by DCFH-DA probe based flow cytometric analysis; format: functional; conditions: dose 0.1-5 µM, time 365.0 min
[7] = Drug uptake in human MCF7 cell cytoplasm assessed as increase in red fluorescence at 1 uM incubated for 6 hrs by fluorescence imaging analysis; format: ADME, subcellular; conditions: mcf7, 6 h
[8] = tested on: MCF7; experiment: Induction of ROS generation in human MCF7 cells assessed as increase in green fluorescence at 1 uM incubated for 6 hrs followed by irradiation with 660 nm 0.4 W/cm2 light for 5 min by fluorescence imaging analysis; format: functional, cell-based; conditions: time 365.0 min
[9] = tested on: MCF7; experiment: Photothermal effect in human MCF7 cells assessed as temperature of cell culture medium at 1 uM irradiated with 660 nm 0.4 W/cm2 light for 4 min (reference value: 26 degreeC); format: ADME, cell-based; conditions: mcf7, 4 min
[10] = tested on: MCF7; experiment: Antitumor activity against human MCF7 cells xenografted in female BALB/c mouse model assessed as tumor regression at 5 mg/kg, iv measured after 14 days with 660 nm 0.4 W/cm2 light irradiation for 5 mins at 4 hrs of incubation time (reference value: 122.9 mm3); format: functional; conditions: time 14 day
[11] = tested on: MCF7; experiment: Antitumor activity against human MCF7 cells xenografted in female BALB/c mouse model assessed as tumor growth inhibition at 5 mg/kg, iv measured after 14 days relative to control; format: functional; conditions: MCF7, 336 h, time 14 day, read-out: TGI
[12] = tested on: Mus musculus; experiment: In vivo induction of ERalpha degradation in female BALB/c mouse xenografted with human MCF7 cells assessed as decrease in ERalpha level in tumor at 5 mg/kg, iv measured after 14 days with 660 nm 0.4 W/cm2 light irradiation for 5 mins at 4 hrs of incubation time by DAPI staining based immunofluorescence analysis; format: functional, organism-based; conditions: time 14.0 day
[13] = Toxicity in female BALB/c mouse xenografted with human MCF7 cells assessed as change in hematocrit level at 5 mg/kg, iv measured after 14 days; format: organism-based; conditions: in vivo, 336 h, time 14 day
[14] = Toxicity in female BALB/c mouse xenografted with human MCF7 cells assessed as change in white blood cell level at 5 mg/kg, iv measured after 14 days; format: organism-based; conditions: in vivo, 336 h, time 14 day
[15] = Toxicity in female BALB/c mouse xenografted with human MCF7 cells assessed as change in hemoglobin level at 5 mg/kg, iv measured after 14 days; format: organism-based; conditions: in vivo, 336 h, time 14 day
[16] = Toxicity in female BALB/c mouse xenografted with human MCF7 cells assessed as change in blood urea nitrogen level at 5 mg/kg, iv measured after 14 days; format: organism-based; conditions: in vivo, 336 h, time 14 day
[17] = Toxicity in female BALB/c mouse xenografted with human MCF7 cells assessed as change in creatinine level at 5 mg/kg, iv measured after 14 days; format: organism-based; conditions: in vivo, 336 h, time 14 day
[18] = Toxicity in female BALB/c mouse xenografted with human MCF7 cells assessed as change in blood urea nitrogen level at 5 mg/kg, iv measured after 14 days with 660 nm 0.4 W/cm2 light irradiation for 5 mins at 4 hrs of incubation time; format: organism-based; conditions: in vivo, 336 h, time 14 day
[19] = Drug uptake in female BALB/c mouse liver xenografted with human MCF7 cells at 5 mg/kg, iv measured after 4 hrs by fluorescence imaging analysis; format: ADME, organism-based; conditions: in vivo
[20] = Toxicity in female BALB/c mouse xenografted with human MCF7 cells assessed as effect on lung histology at 5 mg/kg, iv measured after 14 days by H and E staining based analysis; format: organism-based; conditions: in vivo, 336 h, time 14 day
[21] = Toxicity in female BALB/c mouse xenografted with human MCF7 cells assessed as effect on liver histology at 5 mg/kg, iv measured after 14 days by H and E staining based analysis; format: organism-based; conditions: in vivo, 336 h, time 14 day
[22] = tested on: MCF7; experiment: cells; conditions: Homo sapiens, MCF7, light or radiation study
Description: Antiproliferative activity against human MCF7 cells assessed as inhibition of cell proliferation incubated for 48 hrs with 660 nm 0.4 W/cm2 light irradiation for 2 min at 6th hr of incubation time by MTT assay

[23] = tested on: MCF7; experiment: cells; conditions: Homo sapiens, MCF7, light or radiation study; remark: listed apart in the source
Description: Antiproliferative activity against human MCF7 cells assessed as inhibition of cell proliferation incubated for 48 hrs with 660 nm 0.4 W/cm2 light irradiation for 4 min at 6th hr of incubation time by MTT assay

[24] = in vivo; conditions: Sprague-Dawley, rat, iv, 5 mg/kg
Description: Cmax in Sprague-Dawley rat at 5 mg/kg, iv measured after 0.5 to 168 hrs by LC-MS analysis

[25] = in vivo; conditions: Sprague-Dawley, rat, iv, 5 mg/kg; remark: listed apart in the source
Description: AUC (0 to infinity) in Sprague-Dawley rat at 5 mg/kg, iv measured after 0.5 to 168 hrs by LC-MS analysis

[26] = in vivo; conditions: Sprague-Dawley, rat, iv, 5 mg/kg; remark: listed apart in the source
Description: Volume of distribution at steady state in Sprague-Dawley rat at 5 mg/kg, iv measured after 0.5 to 168 hrs by LC-MS analysis

[27] = in vivo; conditions: Sprague-Dawley, rat, po, 15 mg/kg
Description: Cmax in Sprague-Dawley rat at 15 mg/kg, po administered via gavage and measured after 0.5 to 168 hrs by LC-MS analysis

- Drug uptake [7]: Active
- T [9]: 30.9 °C
- Drug uptake [19]: Active
- IC50 [22]: 290 nM
- IC50 [23]: 160 nM
- Cmax [24]: 30.2 ng/mL
- AUC(0-inf) [25]: 279 ng·h/mL
- Vd [26]: 108 L/kg
- Cmax [27]: 17.5 ng/mL
SMILES: CCN(CC)c1ccc2nc3c4ccccc4/c(=N\CCCCCCC(=O)NCCOc4ccc(C(=O)c5c(-c6ccc(O)cc6)sc6cc(O)ccc56)cc4)cc-3sc2c1
- Activity [1]: Active
- Activity [2]: Active
- IC50 at 48 h [3]: > 100000 nM
- Activity [4]: 0.7%
- Activity [5]: 47.8%
- Activity [6]: Dose-dependent-effect
- Activity [8]: Active
- Activity [10]: 45.3 mm3
- inhibition in vivo at 5 mg/kg [11]: 77.5%
- Activity [12]: Active; Superior To That Of Faslodex
- Activity [13]: Non-toxic
- Activity [14]: Non-toxic
- Activity [15]: Non-toxic
- Activity [16]: Non-toxic
- Activity [17]: Non-toxic
- Activity [18]: Non-toxic
- Activity [20]: Non-toxic
- Activity [21]: Non-toxic

Source: ChEMBL document CHEMBL6134865, “Rational Design of Methylene Blue-Raloxifene Conjugates for Efficient Breast Tumor Elimination Triggered by ERα Degradation” (J Med Chem, 2025)
